Source: ChEMBL document CHEMBL3885881, “DrugMatrix”
Starred links: 1 amine or outer side, 2 acyl side, 3 side chain; linkers in the order of their positions; H or OH if unused. Positions of bridges follow the written chain, without caps; N, C: chain ends. Non-standard residues stand in square brackets, D forms with d. Residues, ends and D or L forms follow the SMILES beside them. Chains are numbered I, II in the order given. Actinocin(9to1) = Cc1c2oc3c(C)ccc(C(=O)[*:1])c3nc-2c(C(=O)[*:2])c(N)c1=O; NMeV = CN[C@H](C(=O)O)C(C)C; Sar = CNCC(=O)O

Species: Rattus norvegicus
Experiment: DrugMatrix - Regimen: Daily Repeat
Type: toxicity, organism-based, Sprague-Dawley
Design: regimen Daily Repeat, gender Male, age 6-8 weeks
Conditions: in vivo, iv, vehicle 100 % SALINE; for ABSOLUTE BASOPHIL / ABSOLUTE EOSINOPHIL / ABSOLUTE LYMPHOCYTE / ABSOLUTE MONOCYTE / ABSOLUTE SEGMENTED NEUTROPHIL / BASOPHIL / EOSINOPHIL / ERYTHROCYTE COUNT / HEMATOCRIT / HEMOGLOBIN / LEUKOCYTE COUNT / LYMPHOCYTE / MEAN CORPUSCULAR HEMOGLOBIN / MEAN CORPUSCULAR HEMOGLOBIN CONCENTRATION / MEAN CORPUSCULAR VOLUME / MONOCYTE / NEUTROPHIL / NUCLEATED RED BLOOD CELLS / PLATELET COUNT: tissue Blood; for ALANINE AMINOTRANSFERASE / ALBUMIN / ALKALINE PHOSPHATASE / ASPARTATE AMINOTRANSFERASE / BLOOD UREA NITROGEN / CARBON DIOXIDE / CHLORIDE / CHOLESTEROL / CREATINE PHOSPHOKINASE / CREATININE / GLUCOSE / LACTATE DEHYDROGENASE / LIPASE / PHOSPHORUS / POTASSIUM / SODIUM / TOTAL BILIRUBIN / TOTAL PROTEIN / URIC ACID: tissue Plasma
[1] = 0 mg/kg, 72 h, dose level Control, time 3 day
[2] = 0 mg/kg, 120 h, dose level Control, time 5 day
[3] = 0.006 mg/kg, 72 h, dose level Low, time 3 day

Structure (SMILES): Cc1c2oc3c(C)ccc(C(=O)N[C@@H]4C(=O)N[C@H](C(C)C)C(=O)N5CCC[C@H]5C(=O)N(C)CC(=O)N(C)[C@@H](C(C)C)C(=O)O[C@@H]4C)c3nc-2c(C(=O)N[C@@H]2C(=O)N[C@H](C(C)C)C(=O)N3CCC[C@H]3C(=O)N(C)CC(=O)N(C)[C@@H](C(C)C)C(=O)O[C@@H]2C)c(N)c1=O [DACTINOMYCIN] (I: T[dV]P[Sar][NMeV] / II: T[dV]P[Sar][NMeV]; ester I:1-I:C, II:1-II:C; linker I:N-II:N via Actinocin(9to1))
- ABSOLUTE BASOPHIL [1]: 0 CELLS/uL
- ABSOLUTE EOSINOPHIL [1]: 33.67 CELLS/uL
- ABSOLUTE LYMPHOCYTE [1]: 12123.5 CELLS/uL
- ABSOLUTE MONOCYTE [1]: 243.5 CELLS/uL
- ABSOLUTE SEGMENTED NEUTROPHIL [1]: 1282.67 CELLS/uL
- BASOPHIL [1]: 0%
- EOSINOPHIL [1]: 0.33%
- ERYTHROCYTE COUNT [1]: 5.18 x10E6/uL
- HEMATOCRIT [1]: 32.63%
- HEMOGLOBIN [1]: 12.87 G/DL
- LEUKOCYTE COUNT [1]: 13.68 x10E3/uL
- LYMPHOCYTE [1]: 88.67%
- MEAN CORPUSCULAR HEMOGLOBIN [1]: 24.98 pg
- MEAN CORPUSCULAR HEMOGLOBIN CONCENTRATION [1]: 39.48 G/DL
- MEAN CORPUSCULAR VOLUME [1]: 63.23 fL
- MONOCYTE [1]: 1.83%
- NEUTROPHIL [1]: 9.17%
- NUCLEATED RED BLOOD CELLS [1]: 0.17 /100WBC
- PLATELET COUNT [1]: 1114.5 x10E3/uL
- ALANINE AMINOTRANSFERASE [1]: 46.17 u/L
- ALBUMIN [1]: 4.15 G/DL
- ALKALINE PHOSPHATASE [1]: 374.67 u/L
- ASPARTATE AMINOTRANSFERASE [1]: 89.33 u/L
- BLOOD UREA NITROGEN [1]: 14.83 mg/dL
- CARBON DIOXIDE [1]: 25.67 mmol/L
- CHLORIDE [1]: 101.17 MEQ/L
- CHOLESTEROL [1]: 63.5 mg/dL
- CREATINE PHOSPHOKINASE [1]: 494.67 u/L
- CREATININE [1]: 0.17 mg/dL
- GLUCOSE [1]: 163 mg/dL
- LACTATE DEHYDROGENASE [1]: 269.33 u/L
- LIPASE [1]: 10.67 u/L
- PHOSPHORUS [1]: 11.27 mg/dL
- POTASSIUM [1]: 5.85 MEQ/L
- SODIUM [1]: 141.68 MEQ/L
- TOTAL BILIRUBIN [1]: 0.18 mg/dL
- TOTAL PROTEIN [1]: 5.87 G/DL
- URIC ACID [1]: 1.28 mg/dL
- ABSOLUTE BASOPHIL [2]: 0 CELLS/uL
- ABSOLUTE EOSINOPHIL [2]: 24.67 CELLS/uL
- ABSOLUTE LYMPHOCYTE [2]: 11832.83 CELLS/uL
- ABSOLUTE MONOCYTE [2]: 279.67 CELLS/uL
- ABSOLUTE SEGMENTED NEUTROPHIL [2]: 1446.17 CELLS/uL
- BASOPHIL [2]: 0%
- EOSINOPHIL [2]: 0.17%
- ERYTHROCYTE COUNT [2]: 5.61 x10E6/uL
- HEMATOCRIT [2]: 35.02%
- HEMOGLOBIN [2]: 13.82 G/DL
- LEUKOCYTE COUNT [2]: 13.58 x10E3/uL
- LYMPHOCYTE [2]: 87.67%
- MEAN CORPUSCULAR HEMOGLOBIN [2]: 24.68 pg
- MEAN CORPUSCULAR HEMOGLOBIN CONCENTRATION [2]: 39.5 G/DL
- MEAN CORPUSCULAR VOLUME [2]: 62.42 fL
- MONOCYTE [2]: 2%
- NEUTROPHIL [2]: 10.17%
- NUCLEATED RED BLOOD CELLS [2]: 0 /100WBC
- PLATELET COUNT [2]: 1178.17 x10E3/uL
- ALANINE AMINOTRANSFERASE [2]: 52.83 u/L
- ALBUMIN [2]: 4.12 G/DL
- ALKALINE PHOSPHATASE [2]: 370 u/L
- ASPARTATE AMINOTRANSFERASE [2]: 100.5 u/L
- BLOOD UREA NITROGEN [2]: 15.17 mg/dL
- CARBON DIOXIDE [2]: 28.83 mmol/L
- CHLORIDE [2]: 101 MEQ/L
- CHOLESTEROL [2]: 69.5 mg/dL
- CREATINE PHOSPHOKINASE [2]: 488.67 u/L
- CREATININE [2]: 0.23 mg/dL
- GLUCOSE [2]: 165 mg/dL
- LACTATE DEHYDROGENASE [2]: 502.17 u/L
- LIPASE [2]: 11 u/L
- PHOSPHORUS [2]: 11.7 mg/dL
- POTASSIUM [2]: 5.85 MEQ/L
- SODIUM [2]: 142.45 MEQ/L
- TOTAL BILIRUBIN [2]: 0.18 mg/dL
- TOTAL PROTEIN [2]: 5.85 G/DL
- URIC ACID [2]: 1.43 mg/dL
- ABSOLUTE BASOPHIL [3]: 0 CELLS/uL
- ABSOLUTE EOSINOPHIL [3]: 0 CELLS/uL
- ABSOLUTE LYMPHOCYTE [3]: 7777.33 CELLS/uL
- ABSOLUTE MONOCYTE [3]: 151.33 CELLS/uL
- ABSOLUTE SEGMENTED NEUTROPHIL [3]: 1138 CELLS/uL
- BASOPHIL [3]: 0%
- EOSINOPHIL [3]: 0%
- ERYTHROCYTE COUNT [3]: 5.68 x10E6/uL
- HEMATOCRIT [3]: 35.57%
- HEMOGLOBIN [3]: 13.43 G/DL
- LEUKOCYTE COUNT [3]: 9.07 x10E3/uL
- LYMPHOCYTE [3]: 85.67%
- MEAN CORPUSCULAR HEMOGLOBIN [3]: 23.67 pg
- MEAN CORPUSCULAR HEMOGLOBIN CONCENTRATION [3]: 37.77 G/DL
- MEAN CORPUSCULAR VOLUME [3]: 62.63 fL
- MONOCYTE [3]: 1.67%
- NEUTROPHIL [3]: 12.67%
- NUCLEATED RED BLOOD CELLS [3]: 0 /100WBC
- PLATELET COUNT [3]: 1053 x10E3/uL
- ALANINE AMINOTRANSFERASE [3]: 49.33 u/L
- ALBUMIN [3]: 4.33 G/DL
- ALKALINE PHOSPHATASE [3]: 363.33 u/L
- ASPARTATE AMINOTRANSFERASE [3]: 85.33 u/L
- BLOOD UREA NITROGEN [3]: 14 mg/dL
- CARBON DIOXIDE [3]: 26 mmol/L
- CHLORIDE [3]: 101.67 MEQ/L
- CHOLESTEROL [3]: 85.33 mg/dL
- CREATINE PHOSPHOKINASE [3]: 333 u/L
- CREATININE [3]: 0.25 mg/dL
- GLUCOSE [3]: 155.67 mg/dL
- LACTATE DEHYDROGENASE [3]: 134 u/L
- LIPASE [3]: 11 u/L
- PHOSPHORUS [3]: 10.57 mg/dL
- POTASSIUM [3]: 6.37 MEQ/L
- SODIUM [3]: 143.37 MEQ/L
- TOTAL BILIRUBIN [3]: 0.3 mg/dL
- TOTAL PROTEIN [3]: 6.17 G/DL
- URIC ACID [3]: 1.6 mg/dL
